In patent US20240025907A1, “QUINAZOLINE PAN-KRas INHIBITORS” (Mirati Therapeutics, Inc., priority 2022, published 2024):
Like-named read-outs stand apart in the source and are kept apart here.

Assays:
[1] = test system: KRas-mediated Phosphorylation of ERK in H358 cells; test: Cisbio HTRF pERK assay, H358 cells; type: cell-based; details: H358 cells, 3 hrs compound, read-out: Inhibition (HTRF IC50 nM) of KRas-mediated Phosphorylation of ERK, H358
[2] = test system: KRas-mediated Phosphorylation of ERK in HCT116 cells; test: Cisbio HTRF pERK assay, HCT116 cells; type: cell-based; details: HCT116 cells, 3 hrs compound, read-out: Inhibition (HTRF IC50 nM) of KRas-mediated Phosphorylation of ERK, HCT116
[3] = test system: KRas-mediated Phosphorylation of ERK in H2009 cells; test: Cisbio HTRF pERK assay, H2009 cells; type: cell-based; details: Homo sapiens, NCI-H2009, H2009 cells; read-out: Inhibition (HTRF IC50 nM) of KRas-mediated Phosphorylation of ERK, H2009
[4] = test system: KRas-mediated Phosphorylation of ERK in MKN1 cells; test: Cisbio HTRF pERK assay, MKN1 cells; type: cell-based; details: Homo sapiens, MKN-1, 3 hour compound, read-out: Inhibition (HTRF IC50 nM) of KRas-mediated Phosphorylation of ERK, MKN1
Protocol: (§1) Inhibition of KRas Phosphorylation of ERK (HTRF) by Exemplary Compounds of Formula (I) • Cisbio HTRF Advanced pERK Assay Catalog #64AERPEH • Cell: MKN1, PSN1 • Procedure: • Day 1: Seed 6,000 cells/well −25 μl/well in 384-well white solid bottom plate; RPM1_10% FBS.

[5] = test system: KRas-mediated Phosphorylation of ERK in PSN1 cells; test: Cisbio HTRF pERK assay, PSN1 cells; type: cell-based; details: Homo sapiens, PSN1, 3 h, 3 hour compound, read-out: Inhibition (HTRF IC50 nM) of KRas-mediated Phosphorylation of ERK, PSN1
Protocol: as §1

[6] = test system: KRas-mediated Phosphorylation of ERK in H460 cells; test: Cisbio HTRF pERK assay, H460 cells; type: cell-based; details: H460 cells, 3 hrs compound, read-out: Inhibition (HTRF IC50 nM) of KRas-mediated Phosphorylation of ERK, H460
[7] = test system: KRas-mediated Phosphorylation of ERK in AsPC-1 cells; test: Cisbio HTRF pERK assay, AsPC-1 cells; type: cell-based; details: 3 hrs compound, read-out: Inhibition (HTRF IC50 nM) of KRas-mediated Phosphorylation of ERK, AsPC-1
[8] = test system: KRas-mediated Phosphorylation of ERK in H727 cells; test: Cisbio HTRF pERK assay, H727 cells; type: cell-based; details: 3 hrs compound, read-out: Inhibition (HTRF IC50 nM) of KRas-mediated Phosphorylation of ERK, H727
[9] = test system: KRas-mediated Phosphorylation of ERK in A549 cells; test: Cisbio HTRF pERK assay, A549 cells; type: cell-based; details: A549 cells, 3 hrs compound, read-out: Inhibition (HTRF IC50 nM) of KRas-mediated Phosphorylation of ERK, A549
KRas^G12D = target: T1, KRas^G12D (Homo sapiens, UniProt P01116, G12D); test: KRas TR-FRET tracer displacement binding assay, G12D; details: 60-minute incubation
T1 construct: Biotinylated KRas (corresponding to amino acids 1-169, produced at Accelegan Inc.); biotin (biotinylated); purchased Accelegan Inc
Protocol: (§2) KRas^WT, KRas^G12A, KRas^G12C, KRas^G12D, KRas^G12R, KRas^G12S, KRas^G12V, KRas^G13D, or KRas^Q61H was used in the assay.
(§3) The ability of a compound to bind to KRas was measured using a TR-FRET displacement assay. Biotinylated KRas (corresponding to amino acids 1-169, produced at Accelegan Inc.) was incubated with custom made Cy5 labelled tracer, terbium streptavidin (Cisbio Inc.) and compound (1% DMSO final) in buffer (50 mM HEPES, pH 7.5, 5 mM MgCl2, 0.005% Tween-20 and 1 mM DTT). After a 60-minute incubation at room temperature, the reaction was measured using a BMG LABTECH CLARIO star Plus via TR-FRET.

KRas^G12V = target: T2, KRas^G12V (Homo sapiens, UniProt P01116, G12V); test: KRas TR-FRET tracer displacement binding assay, G12V; details: 60-minute incubation
T2 construct: Biotinylated KRas (corresponding to amino acids 1-169, produced at Accelegan Inc.); biotin (biotinylated); purchased Accelegan Inc
Protocol: as §2, §3

KRas^G12S = target: T3, KRas^G12S (Homo sapiens, UniProt P01116, G12S); test: KRas TR-FRET tracer displacement binding assay, G12S; details: 60-minute incubation
T3 construct: Biotinylated KRas (corresponding to amino acids 1-169, produced at Accelegan Inc.); biotin (biotinylated); purchased Accelegan Inc
Protocol: as §2, §3

KRas^G12C = target: T4, KRas^G12C (Homo sapiens, UniProt P01116, G12C); test: KRas TR-FRET tracer displacement binding assay, G12C; details: 60-minute incubation
T4 construct: Biotinylated KRas (corresponding to amino acids 1-169, produced at Accelegan Inc.); biotin (biotinylated); purchased Accelegan Inc
Protocol: as §2, §3

KRas^WT = target: T5, KRas^WT (Homo sapiens, UniProt P01116); test: KRas TR-FRET tracer displacement binding assay, WT; details: 60-minute incubation
T5 construct: Biotinylated KRas (corresponding to amino acids 1-169, produced at Accelegan Inc.); biotin (biotinylated); purchased Accelegan Inc
Protocol: as §2, §3

T4 sequence (P01116 1-169 isoform P01116-2 G12C): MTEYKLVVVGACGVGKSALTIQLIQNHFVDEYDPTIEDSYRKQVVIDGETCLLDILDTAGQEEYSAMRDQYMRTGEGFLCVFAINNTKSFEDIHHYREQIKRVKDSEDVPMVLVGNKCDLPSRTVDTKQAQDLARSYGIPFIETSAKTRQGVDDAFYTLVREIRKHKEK
T2 sequence (P01116 1-169 isoform P01116-2 G12V): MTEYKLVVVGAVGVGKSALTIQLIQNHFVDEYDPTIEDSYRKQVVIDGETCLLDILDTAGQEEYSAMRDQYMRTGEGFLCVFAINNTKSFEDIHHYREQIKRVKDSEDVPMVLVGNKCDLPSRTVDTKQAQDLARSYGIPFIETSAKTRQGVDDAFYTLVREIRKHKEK
T3 sequence (P01116 1-169 isoform P01116-2 G12S): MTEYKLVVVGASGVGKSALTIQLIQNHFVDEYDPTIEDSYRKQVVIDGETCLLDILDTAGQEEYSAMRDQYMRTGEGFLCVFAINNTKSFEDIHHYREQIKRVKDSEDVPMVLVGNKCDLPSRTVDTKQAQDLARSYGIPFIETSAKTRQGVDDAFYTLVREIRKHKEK
T1 sequence (P01116 1-169 isoform P01116-2 G12D): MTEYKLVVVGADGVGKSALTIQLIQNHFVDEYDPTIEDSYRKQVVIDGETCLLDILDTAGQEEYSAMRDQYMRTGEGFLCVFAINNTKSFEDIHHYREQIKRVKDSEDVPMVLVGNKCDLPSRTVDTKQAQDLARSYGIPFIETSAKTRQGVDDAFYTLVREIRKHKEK
T5 sequence (P01116 1-169 isoform P01116-2): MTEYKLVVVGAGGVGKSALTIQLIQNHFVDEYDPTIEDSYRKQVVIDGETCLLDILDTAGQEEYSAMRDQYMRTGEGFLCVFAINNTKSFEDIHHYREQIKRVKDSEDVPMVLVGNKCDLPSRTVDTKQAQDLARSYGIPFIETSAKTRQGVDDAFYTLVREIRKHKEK

Row | SMILES | IC50 ([1]; Homo sapiens, NCI-H358, 3 h) [nM] | IC50 ([2]; Homo sapiens, HCT-116, 3 h) [nM] | IC50 [3] [nM] | IC50 [4] [nM] | IC50 [5] [nM] | IC50 ([6]; Homo sapiens, NCI-H460, 3 h) [nM] | IC50 ([9]; Homo sapiens, A549, 3 h) [nM] | IC50 ([7]; Homo sapiens, ASPC1, 3 h) [nM] | IC50 ([8]; Homo sapiens, NCI-H727, 3 h) [nM] | IC50 (KRas^G12D) [nM] | IC50 (KRas^G12V) [nM] | IC50 (KRas^G12S) [nM] | IC50 (KRas^G12C) [nM] | IC50 (KRas^WT) [nM] | IC50 [7] [nM] | IC50 [8] [nM] | IC50 [1] [nM] | IC50 [2] [nM] | IC50 [6] [nM] | IC50 [9] [nM]
1 | C[C@@]1(O)COCCN(c2nc(OC[C@@]34CCCN3C[C@H](F)C4)nc3c(F)c(-c4ccc(F)c5sc(N)c(C#N)c45)c(Cl)cc23)C1 (atropisomer, axis not shown; (aS)) [Example 192, 2-amino-4-((R)-6-chloro-8-fluoro-2-(((2R,7aS)-2-fluorotetrahydro-1H-pyrrolizin-7a(5H)-yl)methoxy)-4-((S)-6-hydroxy-6-methyl-1,4-oxazepan-4-yl)quinazolin-7-yl)-7-fluorobenzo[b]thiophene-3-carbonitrile] | 1 | 12 | 1 | 1 | 260 | 4 | 8 |  |  |  |  |  |  |  | 3 | 5 |  |  |  | 
2 | N#Cc1c(N)sc2c(F)ccc(-c3c(Cl)cc4c(N5CC(CO)C5)nc(OC[C@@]56CCCN5C[C@H](F)C6)nc4c3F)c12 [Example 221, 2-amino-4-(6-chloro-8-fluoro-2-(((2R,7aS)-2-fluorotetrahydro-1H-pyrrolizin-7a(5H)-yl)methoxy)-4-(3-(hydroxymethyl)azetidin-1-yl)quinazolin-7-yl)-7-fluorobenzo[b]thiophene-3-carbonitrile] | 154 | 573 | 145 | 86 | 6040 | 394 | 635 | 962 | 1240 |  |  |  |  |  |  |  |  |  |  | 
3 | COc1nc(OC[C@@]23CCCN2C[C@H](F)C3)nc2c(F)c(-c3ccc(F)c4sc(N)c(C#N)c34)c(Cl)cc12 [Example 220, 2-amino-4-(6-chloro-8-fluoro-2-(((2R,7aS)-2-fluorotetrahydro-1H-pyrrolizin-7a(5H)-yl)methoxy)-4-methoxyquinazolin-7-yl)-7-fluorobenzo[b]thiophene-3-carbonitrile] | 63 | 591 | 49 | 45 | 5870 | 134 | 261 | 202 | 123 |  |  |  |  |  |  |  |  |  |  | 
4 | N#Cc1c(N)sc2c(F)ccc(-c3c(Cl)cc4c(N5CC6CCC(C5)N6)nc(OC[C@@]56CCCN5C/C(=C\F)C6)nc4c3F)c12 [Example 180, (R)-4-(4-((1R,5S)-3,8-diazabicyclo[3.2.1]octan-3-yl)-6-chloro-8-fluoro-2-(((S,Z)-2-(fluoromethylene)tetrahydro-1H-pyrrolizin-7a(5H)-yl)methoxy)quinazolin-7-yl)-2-amino-7-fluorobenzo[b]thiophene-3-carbonitrile] |  |  | 40 | 10 | 1370 |  |  |  |  |  |  |  |  |  | 1 | 512 | 54 | 72 | 81 | 139

Further compounds by falling IC50 ([1]; Homo sapiens, NCI-H358, 3 h), results first:

Row | IC50 ([1]; Homo sapiens, NCI-H358, 3 h) [nM] | IC50 ([2]; Homo sapiens, HCT-116, 3 h) [nM] | IC50 [3] [nM] | IC50 [4] [nM] | IC50 [5] [nM] | IC50 ([6]; Homo sapiens, NCI-H460, 3 h) [nM] | IC50 ([9]; Homo sapiens, A549, 3 h) [nM] | IC50 ([7]; Homo sapiens, ASPC1, 3 h) [nM] | IC50 ([8]; Homo sapiens, NCI-H727, 3 h) [nM] | IC50 (KRas^G12D) [nM] | IC50 (KRas^G12V) [nM] | IC50 (KRas^G12S) [nM] | IC50 (KRas^G12C) [nM] | IC50 (KRas^WT) [nM] | SMILES | IC50 [7] [nM] | IC50 [8] [nM] | IC50 [1] [nM] | IC50 [2] [nM] | IC50 [6] [nM] | IC50 [9] [nM]
5 | 982 | > 10000 | 4690 | 739 | > 10000 | 5060 | > 10000 | > 10000 | > 10000 |  |  |  |  |  | N#Cc1c(N)sc2c(F)ccc(-c3c(F)cc4c(NCc5cn[nH]c5)nc(OC[C@@]56CCCN5C[C@H](F)C6)nc4c3F)c12 [Example 214, 4-(4-(((1H-pyrazol-4-yl)methyl)amino)-6,8-difluoro-2-(((2R,7aS)-2-fluorotetrahydro-1H-pyrrolizin-7a(5H)-yl)methoxy)quinazolin-7-yl)-2-amino-7-fluorobenzo[b]thiophene-3-carbonitrile] |  |  |  |  |  | 
6 | 370 | 2250 | 508 | 266 | > 10000 | 1120 | 3340 | 2900 | 1070 |  |  |  |  |  | N#Cc1c(N)sc2c(F)ccc(-c3c(Cl)cc4c(N5CC(O)C5)nc(OC[C@@]56CCCN5C[C@H](F)C6)nc4c3F)c12 [Example 219, 2-amino-4-(6-chloro-8-fluoro-2-(((2R,7aS)-2-fluorotetrahydro-1H-pyrrolizin-7a(5H)-yl)methoxy)-4-(3-hydroxyazetidin-1-yl)quinazolin-7-yl)-7-fluorobenzo[b]thiophene-3-carbonitrile] |  |  |  |  |  | 
7 | 207 | 1110 | 273 | 84 | > 10000 | 911 | 1640 | 2560 | 1440 |  |  |  |  |  | N#Cc1c(N)sc2c(F)ccc(-c3c(Cl)cc4c(NCC5CS(=O)(=O)C5)nc(OC[C@@]56CCCN5C[C@H](F)C6)nc4c3F)c12 [Example 222, 2-amino-4-(6-chloro-4-(((1,1-dioxidothietan-3-yl)methyl)amino)-8-fluoro-2-(((2R,7aS)-2-fluorotetrahydro-1H-pyrrolizin-7a(5H)-yl)methoxy)quinazolin-7-yl)-7-fluorobenzo[b]thiophene-3-carbonitrile] |  |  |  |  |  | 
8 | 26 | 346 | 18 | 12 | 2440 | 118 | 325 | 175 | 131 | 4 | 4 | 5 | 6 | 6 | C[C@@]1(O)COCCN(c2nc(OC[C@@]34CCCN3C[C@H](F)C4)nc3c(F)c(-c4ccc(F)c5sc(N)c(C#N)c45)c(F)cc23)C1 [Example 216, 2-amino-4-(6,8-difluoro-2-(((2R,7aS)-2-fluorotetrahydro-1H-pyrrolizin-7a(5H)-yl)methoxy)-4-((S)-6-hydroxy-6-methyl-1,4-oxazepan-4-yl)quinazolin-7-yl)-7-fluorobenzo[b]thiophene-3-carbonitrile] |  |  |  |  |  | 
9 | 21 | 392 | 34 | 13 | 3820 | 223 | 393 | 25 | 35 | < 2 | < 2 | < 2 | 4 | < 2 | CN(C)C(=O)c1cc2n(n1)CCCN(c1nc(OC[C@@]34CCCN3C[C@H](F)C4)nc3c(F)c(-c4ccc(F)c5sc(N)c(C#N)c45)c(F)cc13)C2 [Example 215, 5-(7-(2-amino-3-cyano-7-fluorobenzo[b]thiophen-4-yl)-6,8-difluoro-2-(((2R,7aS)-2-fluorotetrahydro-1H-pyrrolizin-7a(5H)-yl)methoxy)quinazolin-4-yl)-N,N-dimethyl-5,6,7,8-tetrahydro-4H-pyrazolo[1,5-a][1,4]diazepine-2-carboxamide] |  |  |  |  |  | 
